From patent US20250064941A1, “SIGLEC LIGANDS, CONJUGATES, AND METHODS OF USE THEREOF” (Osprey Biopharmaceuticals, Inc., priority 2023, published 2025)

Assays:
[1] = molecular target: T1, mouse Siglec-2-Fc-Avi (CD22) (Mus musculus, UniProt P35329); assay: SPR binding affinity to mouse CD22; conditions: steady-state analysis
T1 construct: made in house
T1 sequence (P35329 22-708 limits assumed): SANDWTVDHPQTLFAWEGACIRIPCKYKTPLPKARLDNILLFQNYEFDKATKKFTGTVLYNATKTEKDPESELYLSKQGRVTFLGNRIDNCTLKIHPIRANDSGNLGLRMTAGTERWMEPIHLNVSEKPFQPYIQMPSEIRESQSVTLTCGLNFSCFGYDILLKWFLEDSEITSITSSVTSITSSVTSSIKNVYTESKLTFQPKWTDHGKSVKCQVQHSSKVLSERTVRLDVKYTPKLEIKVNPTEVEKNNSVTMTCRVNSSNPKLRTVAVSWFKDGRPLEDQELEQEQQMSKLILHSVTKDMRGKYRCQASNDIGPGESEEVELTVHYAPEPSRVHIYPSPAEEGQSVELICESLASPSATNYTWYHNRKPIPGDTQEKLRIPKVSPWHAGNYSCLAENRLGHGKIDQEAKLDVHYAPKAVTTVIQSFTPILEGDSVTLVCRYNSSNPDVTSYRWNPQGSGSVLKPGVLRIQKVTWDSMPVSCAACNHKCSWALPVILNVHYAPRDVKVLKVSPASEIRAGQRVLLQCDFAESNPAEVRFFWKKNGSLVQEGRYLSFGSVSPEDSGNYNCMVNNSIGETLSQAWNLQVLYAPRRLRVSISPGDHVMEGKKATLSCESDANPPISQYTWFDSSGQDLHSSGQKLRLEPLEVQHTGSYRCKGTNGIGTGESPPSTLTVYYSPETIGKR
In short: (§1)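 SialoExo pretreatment, 4 h 37° C.; biotinylated CD22 on SA chip, Biacore 8K. Buffer 10 mM HEPES, 150 mM NaCl, 0.05% Tween-20, pH 7.5, 1% DMSO. Dissociation 120 s; solvent-corrected; steady-state KD.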

cynomolgus Siglec-2/CD22 = cynomolgus Siglec-2/CD22 (Macaca fascicularis, UniProt A0A2K5WCZ6); assay: biochemical; format: binding; conditions: SPR, steady-state analysis; read-out: Affinity cyno CD22
Description: Prior to immobilization, CD22 proteins were treated with SialoExo (Genovis, Cat #G1-SM1-020) for 4 hours at 37° C. to remove native sialic acid residues.
Surface preparation for cyno CD22 protein consisted of amine coupling to Cytiva CM5 chip (Cytiva, Cat #BR100530) using the Cytiva amine coupling kit Type 2 (Cytiva, Cat #BR100633). Following the standard amine coupling protocols, EDC and NHS from the kit were mixed 1:1 and injected over flow cells 1 and 2. […] Any active carboxy groups were then capped with 1M Ethanolamine, pH 8.5 for 420s on flow cells 1 and 2.
Binding experiments of Siglec-ligand conjugated proteins or Siglec ligand compounds were performed on the surfaces prepared above in 10 mM HEPES, 150 mM NaCl, 0.05% Tween-20, pH 7.5, 1% DMSO as the running buffer. […] The compounds were then allowed to dissociate from the surface for 120 seconds. […] Solvent correction was performed using 0.5, 1, 1.5, and 2% DMSO spike into running buffer without DMSO. […] Data was analyzed using steady-state analysis in Biacore Insight Evaluation Software, version 3.0 for Siglec ligand compounds.

[2] = molecular target: T2, human Siglec-2/CD22 protein (Homo sapiens, UniProt P20273); assay: SPR binding affinity to human CD22; conditions: steady-state analysis
T2 construct: purchased Acro Biosystems SI2-H82E3
T2 sequence (P20273 20-847): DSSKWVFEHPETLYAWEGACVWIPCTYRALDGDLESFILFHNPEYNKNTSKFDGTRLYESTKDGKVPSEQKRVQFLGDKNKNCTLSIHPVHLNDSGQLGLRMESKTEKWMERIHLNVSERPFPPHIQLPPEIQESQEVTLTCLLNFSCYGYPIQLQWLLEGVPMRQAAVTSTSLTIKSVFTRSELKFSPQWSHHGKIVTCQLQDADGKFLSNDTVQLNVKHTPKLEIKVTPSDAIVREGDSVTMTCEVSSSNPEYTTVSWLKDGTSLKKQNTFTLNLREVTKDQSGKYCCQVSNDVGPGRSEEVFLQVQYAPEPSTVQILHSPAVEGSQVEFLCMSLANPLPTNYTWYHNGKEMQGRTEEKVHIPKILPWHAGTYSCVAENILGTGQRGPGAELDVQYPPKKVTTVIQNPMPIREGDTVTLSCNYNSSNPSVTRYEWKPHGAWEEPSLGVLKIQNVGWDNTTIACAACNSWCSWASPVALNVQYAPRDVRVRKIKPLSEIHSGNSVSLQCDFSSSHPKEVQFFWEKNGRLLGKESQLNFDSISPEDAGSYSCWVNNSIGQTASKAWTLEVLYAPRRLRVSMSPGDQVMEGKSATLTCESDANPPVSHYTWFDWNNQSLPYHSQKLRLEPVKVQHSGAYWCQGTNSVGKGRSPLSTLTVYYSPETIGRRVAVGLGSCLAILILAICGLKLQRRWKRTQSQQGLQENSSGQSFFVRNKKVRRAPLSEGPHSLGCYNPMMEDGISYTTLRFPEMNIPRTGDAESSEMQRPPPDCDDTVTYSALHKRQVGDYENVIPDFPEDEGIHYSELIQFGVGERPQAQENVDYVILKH
In short: as §1

Sequence of cynomolgus Siglec-2/CD22 (A0A2K5WCZ6 entry or part of it): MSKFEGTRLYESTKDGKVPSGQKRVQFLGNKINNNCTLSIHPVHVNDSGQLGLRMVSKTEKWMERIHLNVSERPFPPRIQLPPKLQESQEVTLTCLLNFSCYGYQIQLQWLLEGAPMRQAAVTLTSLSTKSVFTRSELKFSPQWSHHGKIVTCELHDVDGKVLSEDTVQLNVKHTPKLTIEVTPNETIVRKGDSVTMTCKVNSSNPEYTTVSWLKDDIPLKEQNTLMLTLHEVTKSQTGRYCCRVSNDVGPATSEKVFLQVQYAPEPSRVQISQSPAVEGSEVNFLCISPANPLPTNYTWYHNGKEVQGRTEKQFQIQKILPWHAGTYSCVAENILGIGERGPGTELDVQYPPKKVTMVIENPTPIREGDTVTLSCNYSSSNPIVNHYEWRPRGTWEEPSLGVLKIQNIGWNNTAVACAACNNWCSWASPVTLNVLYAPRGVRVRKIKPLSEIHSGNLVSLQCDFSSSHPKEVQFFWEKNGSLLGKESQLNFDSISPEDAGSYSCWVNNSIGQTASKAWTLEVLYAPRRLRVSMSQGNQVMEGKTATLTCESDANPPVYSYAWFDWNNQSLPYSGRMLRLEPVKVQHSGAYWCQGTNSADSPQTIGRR

Row | Compound | Kd [1] | Kd (cynomolgus Siglec-2/CD22) | Kd [2]
1 | C#CCOCCOCCO[C@]1(C(=O)O)C[C@H](O)[C@@H](NC(=O)CO)[C@H]([C@H](O)[C@H](O)CNC(=O)CCCCCCCCCCCCCCC)O1 [Compound 13, (2R,4S,5R,6R)-6-((1R,2R)-1,2-dihydroxy-3-palmitamidopropyl)-4-hydroxy-5-(2-hydroxyacetamido)-2-(2-(2-(prop-2-yn-1-yloxy)ethoxy)ethoxy)tetrahydro-2H-pyran-2-carboxylic acid] | > 10 µM | > 10 µM | > 10 µM
2 | C#CCOCCOCCO[C@]1(C(=O)O)C[C@H](O)[C@@H](NC(=O)CO)[C@H]([C@H](O)[C@H](O)CNC(=O)C[C@H]2CC[C@H](O)CC2)O1 [Compound 14, (2R,4S,5R,6R)-6-((1R,2R)-1,2-dihydroxy-3-(2-((1r,4R)-4-hydroxycyclohexyl)acetamido)propyl)-4-hydroxy-5-(2-hydroxyacetamido)-2-(2-(2-(prop-2-yn-1-yloxy)ethoxy)ethoxy)tetrahydro-2H-pyran-2-carboxylic acid] | 1 to 10 µM | > 10 µM | > 10 µM
3 | C#CCOCCOCCO[C@]1(C(=O)O)C[C@H](O)[C@@H](NC(=O)CO)[C@H]([C@H](O)[C@H](O)CNC(=O)CC)O1 [Compound 15, (2R,4S,5R,6R)-6-((1R,2R)-1,2-dihydroxy-3-propionamidopropyl)-4-hydroxy-5-(2-hydroxyacetamido)-2-(2-(2-(prop-2-yn-1-yloxy)ethoxy)ethoxy)tetrahydro-2H-pyran-2-carboxylic acid] | > 10 µM | > 10 µM | > 10 µM
4 | C#CCCOc1ccc(CO[C@]2(C(=O)O)C[C@H](O)[C@@H](NC(=O)CO)[C@H]([C@H](O)[C@H](O)CN)O2)cc1 [Compound 16, (2R,4S,5R,6R)-6-((1R,2R)-3-amino-1,2-dihydroxypropyl)-2-((4-(but-3-yn-1-yloxy)benzyl)oxy)-4-hydroxy-5-(2-hydroxyacetamido)tetrahydro-2H-pyran-2-carboxylic acid] | > 10 µM | > 10 µM | > 10 µM
5 | C#CCOCCOCCO[C@]1(C(=O)O)C[C@H](O)[C@@H](NC(=O)CO)[C@H]([C@H](O)[C@H](O)CNC(=O)c2cccc(Oc3ccc(O)cc3)c2)O1 [Compound 18, (2R,4S,5R,6R)-6-((1R,2R)-1,2-dihydroxy-3-(3-(4-hydroxyphenoxy)benzamido)propyl)-4-hydroxy-5-(2-hydroxyacetamido)-2-(2-(2-(prop-2-yn-1-yloxy)ethoxy)ethoxy)tetrahydro-2H-pyran-2-carboxylic acid] | 1 to 10 µM | 1 to 10 µM | < 1 µM
6 | C#CCOCCOCCO[C@]1(C(=O)O)C[C@H](O)[C@@H](NC(=O)CO)[C@H]([C@H](O)[C@H](O)CNC(=O)c2ccc(-c3ccc(O)cc3)cc2)O1 [Compound 19, (2R,4S,5R,6R)-6-((1R,2R)-1,2-dihydroxy-3-(4′-hydroxy-[1,1′-biphenyl]-4-carboxamido)propyl)-4-hydroxy-5-(2-hydroxyacetamido)-2-(2-(2-(prop-2-yn-1-yloxy)ethoxy)ethoxy)tetrahydro-2H-pyran-2-carboxylic acid] | 1 to 10 µM | 1 to 10 µM | < 1 µM
7 | C#CCCOc1ccc(CO[C@]2(C(=O)O)C[C@H](O)[C@@H](NC(C)=O)[C@H]([C@H](O)[C@H](O)CNC(=O)c3cccc(Oc4ccccc4)c3)O2)cc1 [Compound 22, (2R,4S,5R,6R)-5-acetamido-2-((4-(but-3-yn-1-yloxy)benzyl)oxy)-6-((1R,2R)-1,2-dihydroxy-3-(3-phenoxybenzamido)propyl)-4-hydroxytetrahydro-2H-pyran-2-carboxylic acid] | > 10 µM | 1 to 10 µM | < 1 µM
8 | C#CCCOc1cccc(CO[C@]2(C(=O)O)C[C@H](O)[C@@H](NC(C)=O)[C@H]([C@H](O)[C@H](O)CNC(=O)c3cccc(Oc4ccccc4)c3)O2)c1 [Compound 23, (2R,4S,5R,6R)-5-acetamido-2-((3-(but-3-yn-1-yloxy)benzyl)oxy)-6-((1R,2R)-1,2-dihydroxy-3-(3-phenoxybenzamido)propyl)-4-hydroxytetrahydro-2H-pyran-2-carboxylic acid] | > 10 µM | 1 to 10 µM | 1 to 10 µM
9 | C#CCOC[C@H](O)[C@@H](O)CO[C@]1(C(=O)O)C[C@H](O)[C@@H](NC(=O)CO)[C@H]([C@H](O)[C@H](O)CNC(=O)Cc2ccc(Cl)cc2)O1 [Compound 24, (2R,4S,5R,6R)-6-((1R,2R)-3-(2-(4-chlorophenyl)acetamido)-1,2-dihydroxypropyl)-2-((2S,3S)-2,3-dihydroxy-4-(prop-2-yn-1-yloxy)butoxy)-4-hydroxy-5-(2-hydroxyacetamido)tetrahydro-2H-pyran-2-carboxylic acid] | > 10 µM | 1 to 10 µM | 1 to 10 µM
10 | C#CCOCCCCCCO[C@]1(C(=O)O)C[C@H](O)[C@@H](NC(=O)CN(C)C)[C@H]([C@H](O)[C@H](O)CNC(=O)Cc2ccc(Cl)cc2)O1 [Compound 25, (2R,4S,5R,6R)-6-((1R,2R)-3-(2-(4-chlorophenyl)acetamido)-1,2-dihydroxypropyl)-5-(2-(dimethylamino)acetamido)-4-hydroxy-2-((6-(prop-2-yn-1-yloxy)hexyl)oxy)tetrahydro-2H-pyran-2-carboxylic acid] | 1 to 10 µM | 1 to 10 µM | > 10 µM
11 | C#CCOCCCCCCO[C@]1(C(=O)O)C[C@H](O)[C@@H](NC(C)=S)[C@H]([C@H](O)[C@H](O)CNC(=O)Cc2ccc(Cl)cc2)O1 [Compound 26, (2R,4S,5R,6R)-6-((1R,2R)-3-(2-(4-chlorophenyl)acetamido)-1,2-dihydroxypropyl)-5-ethanethioamido-4-hydroxy-2-((6-(prop-2-yn-1-yloxy)hexyl)oxy)tetrahydro-2H-pyran-2-carboxylic acid] | < 1 µM | < 1 µM | < 1 µM
12 | C#CCOCCOCCO[C@]1(C(=O)O)C[C@H](O)[C@@H](NC(=O)CO)[C@H]([C@H](O)[C@H](O)CNC(=O)c2ccccc2Cl)O1 [Compound 27, (2R,4S,5R,6R)-6-((1R,2R)-3-(2-chlorobenzamido)-1,2-dihydroxypropyl)-4-hydroxy-5-(2-hydroxyacetamido)-2-(2-(2-(prop-2-yn-1-yloxy)ethoxy)ethoxy)tetrahydro-2H-pyran-2-carboxylic acid] | > 10 µM | > 10 µM | > 10 µM
13 | C#CCOCCOCCO[C@]1(C(=O)O)C[C@H](O)[C@@H](NC(=O)CO)[C@H]([C@H](O)[C@H](O)CNC(=O)c2ccccc2O)O1 [Compound 28, (2R,4S,5R,6R)-6-((1R,2R)-1,2-dihydroxy-3-(2-hydroxybenzamido)propyl)-4-hydroxy-5-(2-hydroxyacetamido)-2-(2-(2-(prop-2-yn-1-yloxy)ethoxy)ethoxy)tetrahydro-2H-pyran-2-carboxylic acid] | > 10 µM | > 10 µM | > 10 µM
